Assay results as given in ChEMBL document CHEMBL3991601, “The target landscape of clinical kinase drugs” (Science, 2017).
Activity calls are given as the source filed them. Rule as the data show it, for most assays here: actives have a measured Kd and inactives only a lower limit.

Key:
[1] = molecular target: Mitogen-activated protein kinase kinase kinase kinase 5 (Homo sapiens, UniProt Q9Y4K4)
[2] = molecular target: T1, Cyclin-G-associated kinase (Homo sapiens, UniProt O14976)
T1 sequence (O14976 whole entry): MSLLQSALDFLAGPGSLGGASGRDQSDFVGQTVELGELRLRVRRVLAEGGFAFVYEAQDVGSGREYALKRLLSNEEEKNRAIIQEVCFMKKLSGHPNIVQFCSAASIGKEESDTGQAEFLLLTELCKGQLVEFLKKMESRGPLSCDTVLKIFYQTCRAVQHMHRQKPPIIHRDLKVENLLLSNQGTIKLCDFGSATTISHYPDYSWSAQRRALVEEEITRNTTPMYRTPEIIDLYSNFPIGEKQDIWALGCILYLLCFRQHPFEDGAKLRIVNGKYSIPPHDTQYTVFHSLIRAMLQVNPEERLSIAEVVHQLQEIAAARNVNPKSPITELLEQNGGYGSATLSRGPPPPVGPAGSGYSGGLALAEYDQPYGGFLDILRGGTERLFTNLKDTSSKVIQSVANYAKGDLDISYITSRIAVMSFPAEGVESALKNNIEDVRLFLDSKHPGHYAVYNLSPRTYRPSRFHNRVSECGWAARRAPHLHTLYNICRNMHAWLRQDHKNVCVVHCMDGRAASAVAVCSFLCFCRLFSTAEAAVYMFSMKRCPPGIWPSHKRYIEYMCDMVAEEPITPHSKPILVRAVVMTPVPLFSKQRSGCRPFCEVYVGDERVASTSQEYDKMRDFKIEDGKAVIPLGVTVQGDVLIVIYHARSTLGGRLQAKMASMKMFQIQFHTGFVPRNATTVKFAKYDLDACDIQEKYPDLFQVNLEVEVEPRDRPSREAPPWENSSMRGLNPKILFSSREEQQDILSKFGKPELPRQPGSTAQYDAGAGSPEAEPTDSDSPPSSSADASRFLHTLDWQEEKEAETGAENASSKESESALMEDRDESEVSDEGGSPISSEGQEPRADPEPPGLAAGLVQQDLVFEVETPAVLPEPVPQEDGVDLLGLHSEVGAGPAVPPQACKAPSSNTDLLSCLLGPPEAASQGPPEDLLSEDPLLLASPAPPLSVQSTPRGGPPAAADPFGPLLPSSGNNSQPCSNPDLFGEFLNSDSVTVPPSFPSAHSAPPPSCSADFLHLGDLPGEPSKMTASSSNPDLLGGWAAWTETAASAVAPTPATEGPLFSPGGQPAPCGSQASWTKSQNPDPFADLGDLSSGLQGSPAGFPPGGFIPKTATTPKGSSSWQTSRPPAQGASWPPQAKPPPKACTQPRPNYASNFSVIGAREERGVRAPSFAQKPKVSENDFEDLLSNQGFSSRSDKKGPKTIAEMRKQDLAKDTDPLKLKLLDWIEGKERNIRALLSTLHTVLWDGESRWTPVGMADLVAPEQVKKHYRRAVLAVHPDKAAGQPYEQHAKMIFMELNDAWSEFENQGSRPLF

[3] = molecular target: Protein-tyrosine kinase 6 (Homo sapiens, UniProt Q13882)
[4] = molecular target: Cyclin-dependent kinase 12 (Homo sapiens, UniProt Q9NYV4)
[5] = molecular target: T2, Phosphatidylinositol 5-phosphate 4-kinase type-2 gamma (Homo sapiens, UniProt Q8TBX8)
T2 sequence (Q8TBX8 whole entry): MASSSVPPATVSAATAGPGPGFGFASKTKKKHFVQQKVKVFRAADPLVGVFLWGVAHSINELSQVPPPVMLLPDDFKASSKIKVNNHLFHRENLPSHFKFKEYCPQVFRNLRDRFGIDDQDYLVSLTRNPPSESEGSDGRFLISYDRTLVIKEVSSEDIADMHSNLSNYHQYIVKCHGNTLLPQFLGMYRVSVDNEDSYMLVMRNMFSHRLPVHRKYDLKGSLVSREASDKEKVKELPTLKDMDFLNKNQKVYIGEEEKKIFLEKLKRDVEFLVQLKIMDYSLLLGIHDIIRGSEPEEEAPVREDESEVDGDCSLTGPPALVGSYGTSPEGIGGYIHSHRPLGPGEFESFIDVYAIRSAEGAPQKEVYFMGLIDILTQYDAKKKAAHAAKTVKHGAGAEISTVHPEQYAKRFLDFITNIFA

[6] = molecular target: T3, Septin-9 (Homo sapiens, UniProt Q9UHD8)
T3 sequence (Q9UHD8 whole entry): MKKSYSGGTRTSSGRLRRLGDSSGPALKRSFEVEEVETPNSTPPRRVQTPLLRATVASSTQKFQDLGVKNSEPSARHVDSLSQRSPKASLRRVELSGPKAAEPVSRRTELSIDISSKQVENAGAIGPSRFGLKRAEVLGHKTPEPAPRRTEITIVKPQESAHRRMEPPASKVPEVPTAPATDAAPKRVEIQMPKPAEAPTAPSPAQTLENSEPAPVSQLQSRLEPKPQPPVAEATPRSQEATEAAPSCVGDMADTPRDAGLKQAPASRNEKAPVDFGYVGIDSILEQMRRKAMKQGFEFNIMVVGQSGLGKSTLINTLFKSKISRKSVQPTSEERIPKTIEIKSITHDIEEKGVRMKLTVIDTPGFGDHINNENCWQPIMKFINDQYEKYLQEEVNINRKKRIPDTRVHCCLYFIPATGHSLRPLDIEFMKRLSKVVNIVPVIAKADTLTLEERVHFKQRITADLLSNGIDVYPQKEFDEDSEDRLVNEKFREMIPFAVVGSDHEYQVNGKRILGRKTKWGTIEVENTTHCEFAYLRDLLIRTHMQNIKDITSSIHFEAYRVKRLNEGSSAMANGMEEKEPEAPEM

[7] = molecular target: T4, ADP/ATP translocase 2 (Homo sapiens, UniProt P05141)
T4 sequence (P05141 whole entry): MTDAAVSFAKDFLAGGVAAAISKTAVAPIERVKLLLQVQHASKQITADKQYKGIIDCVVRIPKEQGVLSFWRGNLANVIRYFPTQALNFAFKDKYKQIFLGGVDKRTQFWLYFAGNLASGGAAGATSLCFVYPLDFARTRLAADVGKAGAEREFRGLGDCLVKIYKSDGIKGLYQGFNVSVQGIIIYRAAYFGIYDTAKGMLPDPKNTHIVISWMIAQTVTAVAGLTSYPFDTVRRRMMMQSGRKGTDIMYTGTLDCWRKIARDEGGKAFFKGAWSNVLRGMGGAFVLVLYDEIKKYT

[8] = molecular target: GTP-binding nuclear protein Ran (Homo sapiens, UniProt P62826)
Also: in the data inactive means no Kd found up to 30 µM.

Protein-tyrosine kinase 6, sequence (Q13882 whole entry): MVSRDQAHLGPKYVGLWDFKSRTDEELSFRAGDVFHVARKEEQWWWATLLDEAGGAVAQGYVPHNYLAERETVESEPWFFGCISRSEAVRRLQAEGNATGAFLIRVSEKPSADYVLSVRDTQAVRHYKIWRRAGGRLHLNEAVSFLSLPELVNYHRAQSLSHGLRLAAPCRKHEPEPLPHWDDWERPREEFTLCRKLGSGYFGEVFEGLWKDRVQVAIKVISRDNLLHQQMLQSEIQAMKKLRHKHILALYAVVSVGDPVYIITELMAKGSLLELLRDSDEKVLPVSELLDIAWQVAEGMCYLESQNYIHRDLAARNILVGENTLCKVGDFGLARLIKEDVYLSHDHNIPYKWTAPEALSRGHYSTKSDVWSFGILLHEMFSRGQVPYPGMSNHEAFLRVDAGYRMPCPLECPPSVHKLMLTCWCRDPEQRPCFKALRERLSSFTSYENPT
Cyclin-dependent kinase 12, sequence (Q9NYV4 whole entry): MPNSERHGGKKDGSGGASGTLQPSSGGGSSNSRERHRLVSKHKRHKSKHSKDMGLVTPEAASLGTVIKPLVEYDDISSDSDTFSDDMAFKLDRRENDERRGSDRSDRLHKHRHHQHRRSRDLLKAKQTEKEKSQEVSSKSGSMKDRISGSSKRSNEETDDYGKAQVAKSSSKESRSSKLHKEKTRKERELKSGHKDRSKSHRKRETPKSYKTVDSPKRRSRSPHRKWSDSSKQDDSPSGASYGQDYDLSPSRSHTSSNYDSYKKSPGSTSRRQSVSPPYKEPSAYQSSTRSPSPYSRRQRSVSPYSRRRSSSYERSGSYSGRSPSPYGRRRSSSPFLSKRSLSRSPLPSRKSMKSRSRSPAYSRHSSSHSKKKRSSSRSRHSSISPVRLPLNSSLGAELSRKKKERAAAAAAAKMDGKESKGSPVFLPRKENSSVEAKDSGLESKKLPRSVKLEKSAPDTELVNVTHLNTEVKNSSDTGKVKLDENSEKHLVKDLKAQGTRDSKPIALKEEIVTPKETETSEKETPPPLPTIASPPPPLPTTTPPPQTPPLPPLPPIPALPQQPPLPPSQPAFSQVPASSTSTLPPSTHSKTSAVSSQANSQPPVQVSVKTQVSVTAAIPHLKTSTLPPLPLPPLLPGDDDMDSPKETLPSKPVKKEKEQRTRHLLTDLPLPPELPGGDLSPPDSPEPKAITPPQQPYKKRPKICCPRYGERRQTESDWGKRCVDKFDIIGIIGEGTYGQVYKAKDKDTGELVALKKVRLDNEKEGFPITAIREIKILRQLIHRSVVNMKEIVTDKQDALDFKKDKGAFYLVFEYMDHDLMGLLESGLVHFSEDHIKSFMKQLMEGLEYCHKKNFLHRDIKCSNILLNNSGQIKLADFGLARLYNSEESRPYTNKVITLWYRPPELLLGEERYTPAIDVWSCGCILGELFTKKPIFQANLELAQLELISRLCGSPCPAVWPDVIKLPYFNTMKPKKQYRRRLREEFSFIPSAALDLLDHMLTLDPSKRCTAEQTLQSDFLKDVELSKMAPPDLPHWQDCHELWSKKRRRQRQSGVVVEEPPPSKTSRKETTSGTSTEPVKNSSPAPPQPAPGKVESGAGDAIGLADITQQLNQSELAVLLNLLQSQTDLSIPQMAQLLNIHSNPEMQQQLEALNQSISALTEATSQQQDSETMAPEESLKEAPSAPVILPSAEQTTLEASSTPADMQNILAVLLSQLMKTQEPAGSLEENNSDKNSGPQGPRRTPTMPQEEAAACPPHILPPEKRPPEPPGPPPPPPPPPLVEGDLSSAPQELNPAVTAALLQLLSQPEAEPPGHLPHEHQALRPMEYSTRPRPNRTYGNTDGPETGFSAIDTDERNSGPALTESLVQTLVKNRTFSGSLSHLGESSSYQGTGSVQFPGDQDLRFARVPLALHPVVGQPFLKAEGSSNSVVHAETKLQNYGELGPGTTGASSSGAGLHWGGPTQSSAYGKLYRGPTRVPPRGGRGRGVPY
Mitogen-activated protein kinase kinase kinase kinase 5, sequence (Q9Y4K4 whole entry): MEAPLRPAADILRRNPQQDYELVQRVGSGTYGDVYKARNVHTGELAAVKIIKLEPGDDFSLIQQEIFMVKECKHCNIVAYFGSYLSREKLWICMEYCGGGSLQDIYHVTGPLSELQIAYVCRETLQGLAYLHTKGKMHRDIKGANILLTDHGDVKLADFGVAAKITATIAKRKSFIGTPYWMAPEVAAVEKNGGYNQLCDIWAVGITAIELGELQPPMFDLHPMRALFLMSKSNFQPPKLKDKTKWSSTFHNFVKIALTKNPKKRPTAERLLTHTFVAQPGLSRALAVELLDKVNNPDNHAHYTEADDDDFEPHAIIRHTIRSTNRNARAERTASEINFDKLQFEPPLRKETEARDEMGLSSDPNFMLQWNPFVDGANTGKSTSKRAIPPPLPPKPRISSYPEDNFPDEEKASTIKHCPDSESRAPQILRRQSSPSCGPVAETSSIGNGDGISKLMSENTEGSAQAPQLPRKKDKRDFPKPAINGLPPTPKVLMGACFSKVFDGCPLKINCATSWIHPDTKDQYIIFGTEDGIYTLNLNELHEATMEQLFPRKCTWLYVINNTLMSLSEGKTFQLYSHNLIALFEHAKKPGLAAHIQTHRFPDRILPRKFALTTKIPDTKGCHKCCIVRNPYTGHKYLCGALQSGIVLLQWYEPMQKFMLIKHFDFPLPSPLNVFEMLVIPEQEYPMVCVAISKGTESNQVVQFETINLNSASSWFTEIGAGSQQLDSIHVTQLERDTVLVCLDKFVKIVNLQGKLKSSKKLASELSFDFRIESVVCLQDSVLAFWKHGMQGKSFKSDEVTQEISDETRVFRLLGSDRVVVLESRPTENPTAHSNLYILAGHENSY

Kd [1]	Kd [2]	Kd [3]	Kd [4]	Kd [5]	Kd [6]	Kd [7]	Kd [8]	Compound
> 30 µM (inactive)	> 30 µM (inactive)	> 30 µM (inactive)	> 30 µM (inactive)	> 30 µM (inactive)	> 30 µM (inactive)	> 30 µM (inactive)	–	Cn1ncc(Cl)c1-c1cc(C(=O)N[C@H](CN)Cc2cccc(F)c2)sc1Cl [AFURESERTIB]
> 30 µM (inactive)	> 30 µM (inactive)	> 30 µM (inactive)	> 30 µM (inactive)	> 30 µM (inactive)	> 30 µM (inactive)	> 30 µM (inactive)	> 30 µM (inactive)	COC(=O)N[C@@H](C)CNc1nccc(-c2cn(C(C)C)nc2-c2cc(Cl)cc(NS(C)(=O)=O)c2F)n1 [ENCORAFENIB]
1.8 µM (active)	> 30 µM (inactive)	1.41 µM (active)	> 30 µM (inactive)	> 30 µM (inactive)	> 30 µM (inactive)	> 30 µM (inactive)	> 30 µM (inactive)	CCCS(=O)(=O)Nc1ccc(F)c(C(=O)c2c[nH]c3ncc(-c4ccc(Cl)cc4)cc23)c1F [VEMURAFENIB]
> 30 µM (inactive)	> 30 µM (inactive)	> 30 µM (inactive)	> 30 µM (inactive)	> 30 µM (inactive)	> 30 µM (inactive)	> 30 µM (inactive)	–	CC[C@H](Nc1ncnc2[nH]cnc12)c1nc2cccc(F)c2c(=O)n1-c1ccccc1 [IDELALISIB]
> 30 µM (inactive)	> 30 µM (inactive)	> 30 µM (inactive)	–	> 30 µM (inactive)	> 30 µM (inactive)	> 30 µM (inactive)	> 30 µM (inactive)	CCc1cnn2c(NCc3ccc[n+]([O-])c3)cc(N3CCCC[C@H]3CCO)nc12 [DINACICLIB]
–	0.196 µM (active)	–	> 30 µM (inactive)	0.067 µM (active)	> 30 µM (inactive)	> 30 µM (inactive)	> 30 µM (inactive)	Cc1nc(N)sc1-c1ccnc(Nc2ccc(N3CCOCC3)cc2)n1 [CYC-116]
–	–	–	> 30 µM (inactive)	–	> 30 µM (inactive)	> 30 µM (inactive)	> 30 µM (inactive)	CN1CCN(c2ccc3nc(-c4c(N)c5c(F)cccc5[nH]c4=O)[nH]c3c2)CC1 [DOVITINIB]
–	–	0.173 µM	> 30 µM (inactive)	> 30 µM (inactive)	> 30 µM (inactive)	> 30 µM (inactive)	> 30 µM (inactive)	COc1cc2nccc(Oc3ccc(NC(=O)NC4CC4)c(Cl)c3)c2cc1C(N)=O [LENVATINIB]
–	> 30 µM (inactive)	–	> 30 µM (inactive)	> 30 µM (inactive)	> 30 µM (inactive)	> 30 µM (inactive)	> 30 µM (inactive)	Cc1cc(Nc2cc(N3CCN(C)CC3)nc(/C=C/c3ccccc3)n2)n[nH]1 [ENMD-2076]
–	> 30 µM (inactive)	> 30 µM (inactive)	> 30 µM (inactive)	–	> 30 µM (inactive)	> 30 µM (inactive)	> 30 µM (inactive)	Nc1nc(N)c2nc(-c3cccc(O)c3)c(-c3cccc(O)c3)nc2n1 [TG100-115]
–	> 30 µM (inactive)	0.787 µM (active)	> 30 µM (inactive)	> 30 µM (inactive)	> 30 µM (inactive)	> 30 µM (inactive)	> 30 µM (inactive)	COc1cc2nccc(Oc3ccc(NC(=O)Nc4cc(C)on4)c(Cl)c3)c2cc1OC [TIVOZANIB]
> 30 µM (inactive)	–	> 30 µM (inactive)	> 30 µM (inactive)	> 30 µM (inactive)	0.084 µM	> 30 µM (inactive)	> 30 µM (inactive)	CCS(=O)(=O)N1CC(CC#N)(n2cc(-c3ncnc4[nH]ccc34)cn2)C1 [BARICITINIB]
–	–	–	> 30 µM (inactive)	–	> 30 µM (inactive)	> 30 µM (inactive)	> 30 µM (inactive)	CCn1c(-c2nonc2N)nc2c(C#CC(C)(C)O)ncc(OC[C@H]3CCCNC3)c21 [GSK-690693]
> 30 µM (inactive)	> 30 µM (inactive)	> 30 µM (inactive)	> 30 µM (inactive)	> 30 µM (inactive)	> 30 µM (inactive)	> 30 µM (inactive)	–	Cc1c(F)cc(C(=O)NC2CC2)cc1-c1ccc(C(=O)NCC(C)(C)C)cn1 [LOSMAPIMOD]
> 30 µM (inactive)	> 30 µM (inactive)	> 30 µM (inactive)	> 30 µM (inactive)	–	> 30 µM (inactive)	> 30 µM (inactive)	> 30 µM (inactive)	C[C@@H](c1ccc2nccn2c1)n1nnc2ncc(-c3cnn(C)c3)nc21 [SAVOLITINIB]
> 30 µM (inactive)	> 30 µM (inactive)	–	> 30 µM (inactive)	> 30 µM (inactive)	> 30 µM (inactive)	> 30 µM (inactive)	> 30 µM (inactive)	COCCNCc1ccc(-c2cc3nccc(Oc4ccc(NC(=S)NC(=O)Cc5ccc(F)cc5)cc4F)c3s2)nc1 [GLESATINIB]

Compound	Kd [1]	Kd [2]	Kd [3]	Kd [4]	Kd [5]	Kd [6]	Kd [7]	Kd [8]
Cc1cc(-c2cc(O)ccc2Cl)cc2nnc(Nc3ccc(OCCN4CCCC4)cc3)nc12	> 30 µM (inactive)	0.002 µM (active)	> 30 µM (inactive)	> 30 µM (inactive)	> 30 µM (inactive)	> 30 µM (inactive)	> 30 µM (inactive)	> 30 µM (inactive)
Cc1cn(-c2cc(NC(=O)c3ccc(C)c(Nc4nccc(-c5cccnc5)n4)c3)cc(C(F)(F)F)c2)cn1 [NILOTINIB]	–	–	–	> 30 µM (inactive)	–	> 30 µM (inactive)	> 30 µM (inactive)	> 30 µM (inactive)
O=C(Nc1cccc(Cl)c1)Nc1ncc(CCNc2ncnc3ccsc23)s1 [SNS-314]	–	> 30 µM (inactive)	–	> 30 µM (inactive)	–	> 30 µM (inactive)	> 30 µM (inactive)	> 30 µM (inactive)
